{
  "source": "patent US20030109537A1",
  "about": "“Methods and materials for treating bone conditions” (priority 2001, published 2003)",
  "key": {"[1]": {"test_system": "PTH-induced marrow fibrosis and osteoclast resorption", "assay": "Bone histomorphometry in rats given trapidil, continuous PTH or both", "assay_type": "in vivo, rat", "experimental": "(§1) Treatment protocol. Three month-old female Sprague-Dawley rats were divided into 4 groups. In group 1 (n=9), osmotic pumps that delivered vehicle alone at a rate of 1 μl/hr for 7 days were implanted in each rat. […] In groups 3 and 4 (n=8 and 10, respectively), osmotic pumps were implanted in each rat that delivered 40 μg/kg/day hPTH at a rate of 1 μl/hr for 7 days. […] Tetracycline (20 mg/kg, Sigma Chemical Co., St. Louis, Mo.) and calcein (20 mg/kg, Sigma) fluorochrome labels were injected at the base of the tail on day 0 (tetracycline) and day 6 (calcein). On day 8, all rats were anesthetized and blood was collected by cardiac puncture. The blood samples were used to determine serum chemistry and PTH levels. Following blood collection, the rats were sacrificed by cervical dislocation, and tibiae were surgically removed and fixed in 70% ethanol for bone histomorphometry.\nBone histomorphometry. Proximal metaphyses were dehydrated in a graded series of ethanol, then infiltrated and embedded in methymethacrylate (Fisher Scientific, Fair Lawn, N.J.). […] Dynamic histomorphometric cancellous bone measurements were made in the unstained sections using fluorescent microscopy to detect the injected tetracycline and calcein markers. After obtaining the cancellous bone measurements, consecutive sections were stained with toluidine blue for bone cell and peritrabecular fibrosis measurements using light microscopy. A standard sampling site of 2.8 mm was located in the secondary spongiosa of the metaphysis at 1.5 mm distal to the growth plate.\nAll histomorphometric measurements were made with an Osteomeasure image analysis system (OsteoMetrics, Atlanta, Ga.) coupled to a photomicroscope and personal computer. All parameters were calculated according to standardized nomenclature. See, for example, Parfitt et al., J. Bone Miner. […] Bone volume was defined as the percentage of tissue volume consisting of cancellous bone. Tetracycline and calcein labels were determined as the percentage of bone perimeter labeled with fluorochrome. Mineral apposition rate (MAR) was defined as the average width between tetracycline and calcein label divided by interlabel time of 6 days. Bone formation rate (BFR) was defined as the product of MAR and the calcein label perimeter, and was expressed per bone surface (BFR/BS), bone volume (BFR/BV), or tissue volume (BFR/TV). Osteoblast surface was defined as a palisade of large basophilic cuboidal cells directly lying on top of the osteoid, and was expressed as a percent of bone perimeter. Osteoclast surface was defined as the bone perimeter lined by multinucleated cells regardless of the presence of erosion. Fibrotic perimeter was defined as the bone perimeter lined by multilayers of fibroblasts.\nStatistical analysis. Multiple group comparisons were determined using one-way analysis of variance (one-way ANOVA) with statistical significance at P<0.05. Differences between pairs of groups were compared by the Fisher's protected least significant difference post-hoc test.\n(§2) Serum and bone samples were collected after 7 days and analyzed."}, "Serum chemistry and PTH": {"assay": "Serum chemistry and PTH", "assay_type": "in vivo, rat", "conditions": "rats", "experimental": "as §1\nSerum chemistry and PTH. Total serum calcium, phosphate, and magnesium levels were measured in rat blood samples by Central Clinical Laboratory Research at the Mayo Clinic using automated procedures. Serum PTH was measured using an immunoradiometric assay for rat PTH (Immunotopics International, LLC, San Clementa, Calif.) that has approximately 100% cross-reactivity to human PTH.\nas §2"}, "[2]": {"test_system": "PDGF-A positive mast cells", "assay": "Immunohistochemistry for PDGF-A on bone samples", "assay_type": "in vivo, rat"}, "[3]": {"test_system": "rat model for parathyroid bone disease", "assay": "Rat model for parathyroid bone disease: pulsatile vs continuous PTH, bone histomorphometry", "assay_type": "in vivo", "conditions": "rats"}, "[4]": {"conditions": "rat proximal tibial metaphysis cancellous bone, day 8, trapidil 40 mg/kg/day s.c., hPTH 40 μg/kg/day continuous, mean ± SEM"}, "[5]": {"conditions": "day 8, trapidil 40 mg/kg/day s.c. 7 days, hPTH 40 μg/kg/day continuous by osmotic pump 7 days, mean ± SEM"}, "[6]": {"conditions": "continuous PTH 40 μg/kg/day osmotic pump 7 days"}, "[7]": {"conditions": "continuous PTH 40 μg/kg/day osmotic pump 7 days, vs untreated control"}, "[8]": {"conditions": "continuous PTH infusion 40 μg/kg/d"}},
  "data": [
    {"substance": "human PTH (1-34)", "values": [
      {"measurement": "cancellous bone formation (per bone surface, bone volume, or tissue volume)", "setting": "[1]; continuous PTH, rats", "result": "stimulated"},
      {"measurement": "osteoclast-lined surface (Oc.S/BS)", "setting": "[1]; continuous PTH, rats, FIG. 2B", "result": "increased"},
      {"measurement": "peritrabecular fibrosis", "setting": "[1]; continuous PTH, rats, FIG. 3", "result": "induced extensive peritrabecular fibrosis"},
      {"measurement": "osteoblast surface (Ob.S/BS)", "setting": "[1]; continuous PTH, trapidil given with continuous PTH, FIG. 2A", "result": "increased"},
      {"measurement": "effect on cortical bone histomorphometry", "setting": "[1]; fluorochrome-based analysis of tibial metaphyseal sections, rats", "result": "neither trapidil nor PTH treatment had any effect"},
      {"measurement": "BFR/BS (bone formation rate per bone surface)", "setting": "[1]; [4]", "result": "0.71 ± 0.10^ab μm^3/μm^2/day"},
      {"measurement": "BFR/BV (bone formation rate per bone volume)", "setting": "[1]; [4]", "result": "2.30 ± 0.31^ab %"},
      {"measurement": "BFR/TV (bone formation rate per tissue volume)", "setting": "[1]; [4]", "result": "0.63 ± 0.09^ab %"},
      {"measurement": "BV/TV (bone volume per tissue volume)", "setting": "[1]; [4]", "result": "27.25 ± 1.14", "unit": "%"},
      {"measurement": "Calcein label", "setting": "[1]; [4]", "result": "48.08 ± 5.35^ab %"},
      {"measurement": "MAR (mineral apposition rate)", "setting": "[1]; [4]", "result": "1.29 ± 0.08", "unit": "μm/day"},
      {"measurement": "Tetracycline label", "setting": "[1]; [4]", "result": "5.65 ± 2.48", "unit": "%"},
      {"measurement": "serum chemistry effect of continuous PTH", "setting": "Serum chemistry and PTH; continuous PTH 40 μg/kg/day 7 days", "result": "induced hypercalcemia and hyperparathyroidism"},
      {"measurement": "Serum Calcium", "setting": "Serum chemistry and PTH; [5]", "result": "11.65 ± 0.28^ab mg/dl"},
      {"measurement": "Serum Magnesium", "setting": "Serum chemistry and PTH; [5]", "result": "2.49 ± 0.04", "unit": "mg/dL"},
      {"measurement": "Serum PTH", "setting": "Serum chemistry and PTH; [5]", "result": "98.27 ± 11.12^ab pg/ml"},
      {"measurement": "Serum Phosphorus", "setting": "Serum chemistry and PTH; [5]", "result": "7.95 ± 0.48", "unit": "mg/dL"},
      {"measurement": "mast cell staining for PDGF-A peptide", "setting": "[2]; PTH-treated rats", "result": "stained intensely"},
      {"measurement": "number of PDGF-A positive mast cells", "setting": "[2]; PTH-treated vs vehicle, PTH+trapidil treated", "result": "increased"},
      {"measurement": "time to increase in 3H-proline incorporation into bone matrix proteins", "setting": "[3]; PTH s.c. 80 μg/kg/d", "result": "≤ 24", "unit": "h"},
      {"measurement": "time to increase in the number of fully mature osteoblasts", "setting": "[3]; PTH s.c. 80 μg/kg/d", "result": "≤ 3", "unit": "days"},
      {"measurement": "time to upregulation of mRNA levels for bone matrix proteins (type I collagen, osteonectin, osteocalcin)", "setting": "[3]; PTH s.c. 80 μg/kg/d", "result": "≤ 16", "unit": "h"},
      {"measurement": "Marrow fibrosis", "setting": "[3]; [6]", "result": "Extensive^b"},
      {"measurement": "Osteoid surface", "setting": "[3]; [6]", "result": "Extensive^b"},
      {"measurement": "Bone formation rate", "setting": "[3]; [7]", "result": "↑^a"},
      {"measurement": "Osteoblast perimeter", "setting": "[3]; [7]", "result": "↑^a"},
      {"measurement": "Osteoclast perimeter", "setting": "[3]; [7]", "result": "↑^b"},
      {"measurement": "mRNA levels for one matrix proteins", "setting": "[3]; [7]", "result": "↑^a"},
      {"measurement": "detrimental skeletal effects of continuous PTH", "setting": "[3]; [8]", "result": "extensive peritrabecular fibrosis, osteomalacia, increased bone formation, and focal bone resorption"},
      {"measurement": "systemic side effects on reducing the dose rate", "setting": "[3]; [8]", "result": "greatly reduced systemic side effects"},
      {"measurement": "systemic effects of continuous release", "setting": "[3]; hPTH infused continuously 80 μg/kg/d, s.c. osmotic pump", "result": "severe hypercalcemia and weight loss"},
      {"measurement": "daily PTH pulse duration at which detrimental side effects were observed", "setting": "[3]; programmed implantable osmotic pump, same quantity of PTH", "result": "≥ 2", "unit": "h"},
      {"measurement": "Bone formation rate", "setting": "[3]; pulsatile PTH 80 μg/kg/day s.c. once daily 7 days, vs untreated control", "result": "↑^a"},
      {"measurement": "effect on serum calcium levels", "setting": "[3]; subcutaneous PTH 80 μg/kg/d", "result": "no effect"}
    ]}
  ]
}
